Measured values reported in patent US20250333424A1, “ANTIVIRAL COMPOUNDS” (Gilead Sciences, Inc., priority 2024, published 2025).
pEC50: −log10 of the molar value.

system: monocytic THP1 cells infected with HIV VSV-G pseudotyped GFP-NEF reporter virus; experiment: cells; assay type: cell-based; conditions: Human immunodeficiency virus 1, THP-1, 24 h

Cc1cc(/C=C/C#N)cc(C)c1Oc1nc(NC23CC(C#N)(C2)C3)nc2nn3c(c12)OCCC3 [Compound 301, (E)-3-((4-(4-(2-cyanovinyl)-2,6-dimethylphenoxy)-7,8-dihydro-6H-pyrimido[4′,5′:3,4]pyrazolo[5,1-b][1,3]oxazin-2-yl)amino)bicyclo[1.1.1]pentane-1-carbonitrile] and Cc1cc(/C=C/C#N)cc(C)c1Oc1nc(NC23CC(C#N)(C2)C3)nc2nc3n(c12)CCCO3 (single isomer, unassigned) [Compound 182, (E)-3-((4-(4-(2-cyanovinyl)-2,6-dimethylphenoxy)-7,8-dihydro-6H-[1,3]oxazino[2,3-f]purin-2-yl)amino)bicyclo[1.1.1]pentane-1-carbonitrile] are within 0.2 log units of each other in pEC50: 7.29 for the first, 7.47 for the second.

Compared with Cc1cc(/C=C/C#N)cc(C)c1Nc1nc(NC23CC(C#N)(C2)C3)nc2[nH]nc(C)c12 [Example 236, 3-[[4-[4-[(E)-2-cyanovinyl]-2,6-dimethyl-anilino]-3-methyl-11H-pyrazolo[3,4-d]pyrimidin-6-yl]amino]bicyclo[1.1.1]pentane-1-carbonitrile], Cc1cc(/C=C/C#N)cc(C)c1Oc1nc(NC23CC(C#N)(C2)C3)nc2[nH]nc(-c3ccn(C)n3)c12 [Compound 107, (E)-3-((4-(4-(2-cyanovinyl)-2,6-dimethylphenoxy)-3-(1-methyl-1H-pyrazol-3-yl)-1H-pyrazolo[3,4-d]pyrimidin-6-yl)amino)bicyclo[1.1.1]pentane-1-carbonitrile] is 0.31 log units lower in pEC50: 6.66 for the first, 6.35 for the second. The first is the more potent here.

Cc1cc(/C=C/C#N)cc(C)c1Oc1nc(NC23CC(C#N)(C2)C3)nc2c1c(C)nn2CCC(F)F [Compound 103, (E)-3-((4-(4-(2-cyanovinyl)-2,6-dimethylphenoxy)-1-(3,3-difluoropropyl)-3-methyl-1H-pyrazolo[3,4-d]pyrimidin-6-yl)amino)bicyclo[1.1.1]pentane-1-carbonitrile] and Cc1cc(/C=C/C#N)cc(C)c1Oc1nc(NC23CC(C#N)(C2)C3)nc2nn(CC(F)F)c(C)c12 [Compound 83, (E)-3-((4-(4-(2-cyanovinyl)-2,6-dimethylphenoxy)-2-(2,2-difluoroethyl)-3-methyl-2H-pyrazolo[3,4-d]pyrimidin-6-yl)amino)bicyclo[11.1.1]pentane-1-carbonitrile] are within 0.2 log units of each other in pEC50: 6.66 for the first, 6.79 for the second.

Cc1cc(/C=C/C#N)cc(C)c1Oc1nc(NC23CC(C#N)(C2)C3)nc2c1/C(=C/F)NC2=O [Compound 266, 3-(((Z)-4-(4-((E)-2-cyanovinyl)-2,6-dimethylphenoxy)-5-(fluoromethylene)-7-oxo-6,7-dihydro-5H-pyrrolo[3,4-d]pyrimidin-2-yl)amino)bicyclo[1.1.1]pentane-1-carbonitrile] and Cc1cc(/C=C/C#N)cc(C)c1Oc1nc(NC23CC(C#N)(C2)C3)nc2c1C(O)(CF)NC2=O (stereo not drawn) [Compound 265, (E)-3-((4-(4-(2-cyanovinyl)-2,6-dimethylphenoxy)-5-(fluoromethyl)-5-hydroxy-7-oxo-6,7-dihydro-5H-pyrrolo[3,4-d]pyrimidin-2-yl)amino)bicyclo[1.1.1]pentane-1-carbonitrile] are within 0.2 log units of each other in pEC50: 7.21 for the first, 7.06 for the second.

First: Cc1cc(/C=C/C#N)cc(C)c1Oc1nc(NC23CC(C#N)(C2)C3)nc2c1[C@@H](C)N(CC(F)F)C2=O [Example 239, (R,E)-3-((4-(4-(2-cyanovinyl)-2,6-dimethylphenoxy)-6-(2,2-difluoroethyl)-5-methyl-7-oxo-6,7-dihydro-5H-pyrrolo[3,4-d]pyrimidin-2-yl)amino)bicyclo[1.1.1]pentane-1-carbonitrile]
Second: Cc1cc(/C=C/C#N)cc(C)c1Oc1nc(NC23CC(C#N)(C2)C3)nc2c1C(C)(O)N(CC(F)F)C2=O (stereo not drawn) [Example 238, (E)-3-((4-(4-(2-cyanovinyl)-2,6-dimethylphenoxy)-6-(2,2-difluoroethyl)-5-hydroxy-5-methyl-7-oxo-6,7-dihydro-5H-pyrrolo[3,4-d]pyrimidin-2-yl)amino)bicyclo[1.1.1]pentane-1-carbonitrile]
The pEC50 of the first is 0.70 log units higher: 7.73 for the first, 7.03 for the second.

Compared with Cc1cc(/C=C/C#N)cc(C)c1Oc1nc(NC23CC(C#N)(C2)C3)nc2nc(Nc3ccccn3)[nH]c12 [Compound 68, (E)-3-((6-(4-(2-cyanovinyl)-2,6-dimethylphenoxy)-8-(pyridin-2-ylamino)-7H-purin-2-yl)amino)bicyclo[1.1.1]pentane-1-carbonitrile], Cc1cc(/C=C/C#N)cc(C)c1Oc1nc(NC23CC(C#N)(C2)C3)nc2nc(Nc3ccn(C)n3)[nH]c12 [Compound 48, (E)-3-((6-(4-(2-cyanovinyl)-2,6-dimethylphenoxy)-8-((1-methyl-1H-pyrazol-3-yl)amino)-7H-purin-2-yl)amino)bicyclo[1.1.1]pentane-1-carbonitrile] is 0.26 log units higher in pEC50: 6.56 for the first, 6.82 for the second.

Going from Cc1cc(/C=C/C#N)cc(C)c1Oc1nc(NC23CC(C#N)(C2)C3)nc2ncn(C(F)F)c12 [Compound 12, (E)-3-((6-(4-(2-cyanovinyl)-2,6-dimethylphenoxy)-7-(difluoromethyl)-7H-purin-2-yl)amino)bicyclo[1.1.1]pentane-1-carbonitrile] to Cc1cc(/C=C/C#N)cc(C)c1Oc1nc(NC23CC(C#N)(C2)C3)nc2cn(C(C)C)nc12 [Compound 108], the pEC50 falls from 8.25 to 6.21 (2.04 log units).

Going from Cc1cc(/C=C/C#N)cc(C)c1Oc1nc(NC23CC(C#N)(C2)C3)nc2c1C(C)N(c1cnn(C(F)(F)F)c1)C2=O (stereo not drawn) [Example 217, (E)-3-((4-(4-(2-cyanovinyl)-2,6-dimethylphenoxy)-5-methyl-7-oxo-6-(1-(trifluoromethyl)-1H-pyrazol-4-yl)-6,7-dihydro-5H-pyrrolo[3,4-d]pyrimidin-2-yl)amino)bicyclo[1.1.1]pentane-1-carbonitrile] to Cc1cc(/C=C/C#N)cc(C)c1Oc1nc(NC23CC(C#N)(C2)C3)nc2c1[C@H](C)N(c1cnn(C)c1)C2=O [Compound 312, (S,E)-3-((4-(4-(2-cyanovinyl)-2,6-dimethylphenoxy)-5-methyl-6-(1-methyl-1H-pyrazol-4-yl)-7-oxo-6,7-dihydro-5H-pyrrolo[3,4-d]pyrimidin-2-yl)amino)bicyclo[1.1.1]pentane-1-carbonitrile], the pEC50 rises from 6.80 to 7.82 (1.02 log units).

C/C(C#N)=C\c1cc(C)c(Oc2nc(NC34CC(C#N)(C3)C4)nc3nn(C)cc23)c(C)c1 [Example 258, (E)-3-((4-(4-(2-cyanoprop-1-en-1-yl)-2,6-dimethylphenoxy)-2-methyl-2H-pyrazolo[3,4-d]pyrimidin-6-yl)amino)bicyclo[1.1.1]pentane-1-carbonitrile] and Cc1cc([C@H]2C[C@@H]2C#N)cc(C)c1Oc1nc(NC23CC(C#N)(C2)C3)nc2nn(C)cc12 (racemic) [Compound 132, (rac)-3-((4-(4-((1S,2S)-2-cyanocyclopropyl)-2,6-dimethylphenoxy)-2-methyl-2H-pyrazolo[3,4-d]pyrimidin-6-yl)amino)bicyclo[1.1.1]pentane-1-carbonitrile] are within 0.2 log units of each other in pEC50: 6.75 for the first, 6.57 for the second.

First: Cc1cc(/C=C/C#N)cc(C)c1Oc1nc(NC23CC(C#N)(C2)C3)nc2c1[C@@]1(C)O[C@H]3CC[C@H]3N1C2=O (relative stereo) [Compound 285, 3-(((4bR,5aS,7aR)-4-(4-((E)-2-cyanovinyl)-2,6-dimethylphenoxy)-4b-methyl-9-oxo-4b,5a,6,7,7a,9-hexahydrocyclobuta[4′,5′]oxazolo[3′,2′:1,5]pyrrolo[3,4-d]pyrimidin-2-yl)amino)bicyclo[1.1.1]pentane-1-carbonitrile]
Second: Cc1cc(/C=C/C#N)cc(C)c1Oc1nc(NC23CC(C#N)(C2)C3)nc2c1C1(C)SCCCN1C2=O (stereo not drawn) [Example 246, (E)-3-((4-(4-(2-cyanovinyl)-2,6-dimethylphenoxy)-4b-methyl-10-oxo-4b,7,8,10-tetrahydro-6H-pyrimido[5′,4′:3,4]pyrrolo[2,1-b][1,3]thiazin-2-yl)amino)bicyclo[1.1.1]pentane-1-carbonitrile]
The pEC50 of the first is 0.35 log units lower: 7.03 for the first, 7.38 for the second.

First: Cc1cc(/C=C/C#N)cc(C)c1Oc1nc(NC23CC(C#N)(C2)C3)nc2c1C(C)N(c1c(C)nn(C)c1C)C2=O (stereo not drawn) [Example 220, (E)-3-((4-(4-(2-cyanovinyl)-2,6-dimethylphenoxy)-5-methyl-7-oxo-6-(1,3,5-trimethyl-1H-pyrazol-4-yl)-6,7-dihydro-5H-pyrrolo[3,4-d]pyrimidin-2-yl)amino)bicyclo[1.1.1]pentane-1-carbonitrile]
Second: Cc1cc(/C=C/C#N)cc(C)c1Oc1nc(NC23CC(C#N)(C2)C3)nc2c1[C@@H]1OC[C@H](F)CN1C2=O (single isomer, unassigned) [Compound 282]
The pEC50 of the first is 0.49 log units lower: 6.81 for the first, 7.30 for the second. The second is the more potent here.

First: CCNc1nc2nc(NC34CC(C#N)(C3)C4)nc(Oc3c(C)cc(/C=C/C#N)cc3C)c2[nH]1 [Compound 47, (E)-3-((6-(4-(2-cyanovinyl)-2,6-dimethylphenoxy)-8-(ethylamino)-7H-purin-2-yl)amino)bicyclo[1.1.1]pentane-1-carbonitrile]
Second: Cc1cc(/C=C/C#N)cc(C)c1Oc1nc(NC23CC(C#N)(C2)C3)nc2nc(-c3cnoc3)[nH]c12 [Compound 71, (E)-3-((6-(4-(2-cyanovinyl)-2,6-dimethylphenoxy)-8-(isoxazol-4-yl)-7H-purin-2-yl)amino)bicyclo[1.1.1]pentane-1-carbonitrile]
The pEC50 of the first is 0.37 log units higher: 6.93 for the first, 6.56 for the second. The first is the more potent here.

Going from Cc1cc(/C=C/C#N)cc(C)c1Oc1nc(NC23CC(C#N)(C2)C3)nc2nc3n(c12)C[C@H](O)CO3 (single isomer, unassigned) [Compound 194] to Cc1cc(/C=C/C#N)cc(C)c1Oc1nc(NC23CC(C#N)(C2)C3)nc2c1C1(C)OCC3(CCC3)CN1C2=O (stereo not drawn) [Example 198, (E)-3-((4′-(4-(2-cyanovinyl)-2,6-dimethylphenoxy)-4b′-methyl-10′-oxo-4b′,10′-dihydro-6′H,8′H-spiro[cyclobutane-1,7′-pyrimido[5′,4′:3,4]pyrrolo[2,1-b][1,3]oxazin]-2′-yl)amino)bicyclo[1.1.1]pentane-1-carbonitrile], the pEC50 falls from 7.30 to 6.94 (0.36 log units). The first is the more potent here.

With Cc1cc(/C=C/C#N)cc(C)c1Oc1nc(NC23CC(C#N)(C2)C3)nc2c1C1(C)OCC3(CCOCC3)CN1C2=O (stereo not drawn) [Example 200, (E)-3-((4′-(4-(2-cyanovinyl)-2,6-dimethylphenoxy)-4b′-methyl-10′-oxo-2,3,4b′,5,6,10′-hexahydro-6′H,8′H-spiro[pyran-4,7′-pyrimido[5′,4′:3,4]pyrrolo[2,1-b][1,3]oxazin]-2′-yl)amino)bicyclo[1.1.1]pentane-1-carbonitrile] the pEC50 was 6.76.
